Here are results for 32 compounds from patent US20120071505A1, “SUBSTITUTED PYRIDINE DERIVATIVES, PHARMACEUTICAL COMPOSITIONS, AND METHODS OF USE TO TREAT OXIDATIVE STRESS” (HIGH POINT PHARMACEUTICALS, LLC, priority 2009, published 2012).

SMILES strings stand for the structures.

The first experiment relates to HMOX1 mRNA expression. In words: Oxidative stress gene expression (mRNA) protocol: heme oxygenase mRNA induction in NHLF cells (Quantigene Plex 2.0, Luminex). The class given is cell-based, human. Particulars: 2.5 μM compound, 6 h, normalized to GAPDH, above DMSO treated cells. The method, then:
Oxidative Stress Gene Expression (mRNA) Protocol
Cell Culture. Normal Human Fibroblast (NHLF), were obtained from Lonza. Cultures of cells were maintained in Fibroblast Growth Medium (FGM-2) medium supplemented with 2% fetal bovine serum (FBS), Fibroblast Growth Factor (hFGF-B) 0.5 ml, Insulin 0.5 ml, gentamicin/amphotericin-B 0.5 mL at 37° C. in a humidified atmosphere of 5% CO2. Primary isolates of cell are cultured in T-225 flasks (Corning) as per instructions from the vendor. Cells are grown to 80% confluence before harvesting. Cells are harvested by first washing with 5 mL of Hepes buffered saline solution (Lonza). The buffered salt solution is aspirated and then 5 mL of a solution of Trypsin-EDTA is added to detach the cells from the culture flask. To this mixture 5 mL of Trypsin neutralization solution (Lonza) is added Trypsin. The mixture is centrifuged at 500×g for 10 minutes at 4° C. The cell pellet is resuspended to a final concentration of one million cells per milliliter in fetal bovine serum containing 6% DMSO. The cells are then dispensed into cyrovials and frozen in liquid nitrogen for storage.
Heme oxygenase mRNA expression. Secondary growth of NHLF cells are used for all assays. Cell are thawed and then placed into culture in T225 flasks. The cells are grown to 80% confluency and harvested by washing once with HEPES buffered saline solution and then trypsinized. Equal numbers (7×10^3 cells per well) of NHLF cells were plated in 96 well tissue culture plates (Corning). Cells were incubated overnight in FGM-2 medium prior to exposure to compound. Cells were treated with either DMSO or a compound of the Examples above for 6 h. Preparation of cell lysates was carried out according to instructions using the Quantigene Reagent system 2.0 protocol (Panomics). Heme oxygenase mRNA induction was detected from cell lysate using the Quantigene Plex 2.0 Assay Kit (Panomics) on the Luminex platform (BIO-RAD). Expression of GAPDH mRNA was used as the internal control for the Quantigen Plex 2.0 Assay. The data in Table 1 represents the fold change of heme oxygenase mRNA expression, normalized to control values, above DMSO treated cells.
For the compound `CC1OCCC1S(=O)(=O)c1c(-c2ccc(C(F)(F)F)cc2)cnc2ccccc12` (centres unmarked) [Example 27, 3-(4-trifluoromethyl-phenyl)-4-(2-methyl-tetrahydro-furan-3-sulfonyl)-quinoline], the “Fold Change of HMOX1 mRNA expression (at 2.5 μM)” value was 27.5 (at 2.5 μM) fold.

Staying with this experiment, now noted: 3 μM compound, 6 h, normalized to GAPDH, above DMSO treated cells.
For the compound `CCOC(=O)c1cnc2c(OC)cccc2c1S(=O)(=O)C1CCCCC1` [Example 3, 4-Cyclohexanesulfonyl-8-methoxy-quinoline-3-carboxylic acid ethyl ester], the “Fold Change of HMOX1 mRNA expression (at 3 μM)” value (“Fold Change … (at 3 μM)” for short) is on record as 6.7 (at 3 μM) fold. With `COc1cccc2c(S(=O)(=O)C3CCOC3C)c(C(=O)OC3CCCCC3)cnc12` (centres unmarked) [Example 8, 8-Methoxy-4-(2-methyl-tetrahydro-furan-3-sulfonyl)-quinoline-3-carboxylic acid cyclohexyl ester], the “Fold Change … (at 3 μM)” value is listed as 4.5 (at 3 μM) fold. On to `COc1cccc2c(S(=O)(=O)C3CCOC3C)c(C(=O)OCC3CCCCC3)cnc12` (centres unmarked) [Example 9, 8-Methoxy-4-(2-methyl-tetrahydro-furan-3-sulfonyl)-quinoline-3-carboxylic acid cyclohexylmethyl ester], for which the “Fold Change … (at 3 μM)” value is reported as 2 (at 3 μM) fold. Turning to `COc1cccc2c(S(=O)(=O)C3CCOC3C)c(C(=O)OCC3CCCO3)cnc12` (centres unmarked) [Example 11, 8-Methoxy-4-(2-methyl-tetrahydro-furan-3-sulfonyl)-quinoline-3-carboxylic acid tetrahydro-furan-2-ylmethyl ester], the “Fold Change … (at 3 μM)” value is on record as 2.7 (at 3 μM) fold. Still for that read-out and setting: under `CCCS(=O)(=O)c1cnc2ccc(OC)cc2c1NC1CCCC1` [Example 29, cyclopentyl-[6-methoxy-3-(propane-1-sulfonyl)-quinolin-4-yl]amine] stands 4.0 (at 3 μM) fold; under `CCCS(=O)(=O)c1cnc2ccc(OC)cc2c1NC1CCCCC1` [Example 30, cyclohexyl-[6-methoxy-3-(propane-1-sulfonyl)-quinolin-4-yl]-amine], 4.0 (at 3 μM) fold; under `CCCS(=O)(=O)c1cnc2c(OC(F)(F)F)cccc2c1NC1CCCC1` [Example 31, cyclopentyl-[3-(propane-1-sulfonyl)-8-trifluoromethoxy-quinolin-4-yl]-amine], 4.0 (at 3 μM) fold.

Staying with this experiment, now noted: 10 μM compound, 6 h, normalized to GAPDH, above DMSO treated cells.
`CCOC(=O)c1cnc2c(OC)cccc2c1S(=O)(=O)Cc1ccoc1` [Example 5, 4-(Furan-3-ylmethanesulfonyl)-8-methoxy-quinoline-3-carboxylic acid ethyl ester]: the “Fold Change of HMOX1 mRNA expression (at 10 μM)” value was 2.0 (at 10 μM) fold. Still for that read-out and setting: the figure for `CCCC(=O)c1cnc2c(OC)cccc2c1S(=O)(=O)C1CCOC1C` (centres unmarked) [Example 7, 1-[8-methoxy-4-(2-methyl-tetrahydro-furan-3-sulfonyl)-quinolin-3-yl]-butan-1-one] is 2.8 (at 10 μM) fold; for `COCCCOC(=O)c1cnccc1S(=O)(=O)C1CCOC1C` (centres unmarked) [Example 21, 4-(2-Methyl-tetrahydro-furan-3-sulfonyl)-nicotinic acid 3-methoxy-propyl ester] it is 6.0 (at 10 μM) fold. Turning to `COCCCOC(=O)c1c[n+]([O-])ccc1S(=O)(=O)C1CCOC1C` (centres unmarked) [Example 22, 4-(2-Methyl-tetrahydro-furan-3-sulfonyl)-1-oxy-nicotinic acid 3-methoxy-propyl ester], the “Fold Change of HMOX1 mRNA expression (at 10 μM)” value is on record as 5.6 (at 10 μM) fold.

Staying with this experiment, now noted: Homo sapiens, 3.75 μM compound, 6 h, normalized to GAPDH, above DMSO treated cells, read-out: Fold Change of HMOX1 mRNA expression at 3.75 μM.
In the case of `CCOC(=O)c1cnc2c(OC)cccc2c1S(C)(=O)=O` [Example 1, 4-methanesulfonyl-8-methoxy-quinoline-3-carboxylic acid ethyl ester], the fold induction at 3.75 µM turned out to be 3.4. As to `CCOC(=O)c1cnc2c(OC)cccc2c1S(=O)(=O)C1CCOC1C` (centres unmarked) [Example 2, 8-Methoxy-4-(2-methyl-tetrahydro-furan-3-sulfonyl)-quinoline-3-carboxylic acid ethyl ester], the fold induction at 3.75 µM came to 48.6. On the same count and under the same terms, the figure for `CCOC(=O)c1cnc2c(OC)cccc2c1S(=O)(=O)c1ccoc1C` [Example 4, 8-Methoxy-4-(2-methyl-furan-3-sulfonyl)-quinoline-3-carboxylic acid ethyl ester] is 5.8; for `CCOC(=O)c1cnc2ccccc2c1S(=O)(=O)C1CCOC1C` (centres unmarked) [Example 6, 4-(2-Methyl-tetrahydro-furan-3-sulfonyl)-quinoline-3-carboxylic acid ethyl ester] it is 64.7.

On to `COCCCOC(=O)c1cnc2c(OC)cccc2c1S(=O)(=O)C1CCOC1C` (centres unmarked) [Example 10, 8-Methoxy-4-(2-methyl-tetrahydro-furan-3-sulfonyl)-quinoline-3-carboxylic acid 3-methoxy-propyl ester], for which the fold induction at 3.75 µM was 28.5. Still for that read-out and setting: under `COCCCOC(=O)c1cnc2c(OC)cccc2c1S(=O)(=O)c1ccoc1C` [Example 12, 8-Methoxy-4-(2-methyl-furan-3-sulfonyl)-quinoline-3-carboxylic acid 3-methoxy-propyl ester] stands 15.3.

Take `COCCCOC(=O)c1cnc2c(OC)cccc2c1S(=O)(=O)Cc1ccoc1` [Example 13, 4-(Furan-3-ylmethanesulfonyl)-8-methoxy-quinoline-3-carboxylic acid 3-methoxy-propyl ester]: the fold induction at 3.75 µM is 17.2.

For the compound `COCCCOC(=O)c1cnc2ccccc2c1S(=O)(=O)C1CCOC1C` (centres unmarked) [Example 14, 4-(2-Methyl-tetrahydro-furan-3-sulfonyl)-quinoline-3-carboxylic acid 3-methoxy-propyl ester], the fold induction at 3.75 µM is 52.4. With `COc1cccc2c(S(=O)(=O)c3ccoc3C)c(C(=O)OCC3CCCO3)cnc12` (centres unmarked) [Example 15, 8-Methoxy-4-(2-methyl-furan-3-sulfonyl)-quinoline-3-carboxylic acid tetrahydro-furan-2-ylmethyl ester], the fold induction at 3.75 µM was 4.4. On the same count and under the same terms, the figure for `COc1cccc2c(S(=O)(=O)Cc3ccoc3)c(C(=O)OCC3CCCO3)cnc12` (centres unmarked) [Example 16, 4-(Furan-3-ylmethanesulfonyl)-8-methoxy-quinoline-3-carboxylic acid tetrahydro-furan-2-ylmethyl ester] is 2.3. Still for that read-out and setting: under `CC1OCCC1S(=O)(=O)c1c(C(=O)OCC2CCCO2)cnc2ccccc12` (centres unmarked) [Example 17, 4-(2-Methyl-tetrahydro-furan-3-sulfonyl)-quinoline-3-carboxylic acid tetrahydro-furan-2-ylmethyl ester] stands 7.8; under `CCCCCOC(=O)c1cnc2c(OC)cccc2c1S(=O)(=O)c1ccoc1C` [Example 18, 8-Methoxy-4-(2-methyl-furan-3-sulfonyl)-quinoline-3-carboxylic acid pentyl ester], 10.2; under `COc1cccc2c(S(=O)(=O)c3ccoc3C)c(C(=O)OCC3CCCC3)cnc12` [Example 19, 8-Methoxy-4-(2-methyl-furan-3-sulfonyl)-quinoline-3-carboxylic acid cyclopentylmethyl ester], 12.6. Same read-out and setting: under `CC1OCCC1Sc1cnc2ccccc2c1S(=O)(=O)C1CCOC1C` (centres unmarked) [Example 20, 4-(2-methyl-tetrahydro-furan-3-sulfonyl)-3-(2-methyl-tetrahydro-furan-3-ylsulfanyl)-quinoline] stands 25.9; under `CCCS(=O)(=O)c1ccncc1C(=O)OCCCOC` [Example 23, 4-(Propane-1-sulfonyl)-nicotinic acid 3-methoxy-propyl ester], 4.2; under `COCCCOC(=O)c1cnccc1S(=O)(=O)CC1CCCCC1` [Example 24, 4-Cyclohexylmethanesulfonyl-nicotinic acid 3-methoxy-propyl ester], 5.3.

Consider `COCC#Cc1cnc2ccccc2c1S(=O)(=O)C1CCOC1C` (centres unmarked) [Example 25, 3-(3-methoxy-prop-1-ynyl)-4-(2-methyl-tetrahydro-furan-3-sulfonyl)-quinoline], for which the fold induction at 3.75 µM came to 13. The same measure, in the same setting: under `CCOC(=O)/C=C/c1cnc2ccccc2c1S(=O)(=O)C1CCOC1C` (centres unmarked) [Example 26, (E)-3-[4-(2-methyl-tetrahydro-furan-3-sulfonyl)-quinolin-3-yl]acrylic acid ethyl ester] stands 13.2. On the same count and under the same terms, under `COc1ccc(-c2cnc3ccccc3c2S(=O)(=O)C2CCOC2C)cc1` (centres unmarked) [Example 28, 3-(4-methoxy-phenyl)-4-(2-methyl-tetrahydro-furan-3-sulfonyl)-quinoline] stands 12.7; under `CCCS(=O)(=O)c1cnc2c(OC(F)(F)F)cccc2c1NC1CCCCC1` [Example 32, cyclohexyl-[3-(propane-1-sulfonyl)-8-trifluoromethoxy-quinolin-4-yl]-amine], 9.8.
